IC50 data for 23 compounds are collected here from patent US10179782B2, “Substituted sulfonamide compounds” (Genentech, Inc., priority 2016, dated 2019).

In this test the target is T1, human TRPA1 (Homo sapiens, UniProt O75762).
T1 construct: expressed in transfected cells; host or cells: CHO cells
As to the kind of experiment: TRPA1 FLIPR Tetra calcium influx assay in CHO cells (block of cinnamaldehyde-induced calcium influx). The settings on record: CHO cells expressing TRPA1, agonist cinnamaldehyde 75 uM, read-out: hTRPA1 CHO Ca2+ AUC EVO (IC50). In kind it is cell-based. As for the experimental part:
IC50s (effective concentration) of compounds on the human and rat TRPA1 channels were determined using a FLIPR Tetra instrument. CHO cells expressing TRPA1 were plated into 384-well plates, incubated overnight at 37 C, and loaded with BD calcium indicator dye for 1 hr at 37° C. followed by 15 minutes at room temperature. The assay buffer was Hank's Balanced Salt Solution (HBSS) containing 20 mM HEPES (pH readjusted to 7.4) along with 0.02% BSA.
Following dye load and plate cool down, compounds were added to the cells using FLIPR Tetra. Plates were then incubated with compounds for 20 minutes at room temperature prior to adding agonist. Following this incubation, ˜EC80 concentration of cinnamaldehyde (75 uM for human TRPA1 and 45 uM for rat TRPA1) was added to active the channels and block of cinnamaldehyde induced calcium influx was measured.
IC50s were fit with a standard Hill function, keeping the Hill coefficient (n) fixed to 1.5. Fixing the Hill coefficient will generally reduce variability of the IC50 determination. The IC50s were individually examined to make sure the MIN and MAX points were set correctly prior to validation of the results.

The mark [1] stands for this setting: Table 2, 20 min compound incubation, Hill coefficient fixed to 1.5.
Setting [2] is: Table 1, with vs without substituent at R2/R3.

Like-named read-outs stand apart in the source and are kept apart here.

T1 sequence (O75762 whole entry): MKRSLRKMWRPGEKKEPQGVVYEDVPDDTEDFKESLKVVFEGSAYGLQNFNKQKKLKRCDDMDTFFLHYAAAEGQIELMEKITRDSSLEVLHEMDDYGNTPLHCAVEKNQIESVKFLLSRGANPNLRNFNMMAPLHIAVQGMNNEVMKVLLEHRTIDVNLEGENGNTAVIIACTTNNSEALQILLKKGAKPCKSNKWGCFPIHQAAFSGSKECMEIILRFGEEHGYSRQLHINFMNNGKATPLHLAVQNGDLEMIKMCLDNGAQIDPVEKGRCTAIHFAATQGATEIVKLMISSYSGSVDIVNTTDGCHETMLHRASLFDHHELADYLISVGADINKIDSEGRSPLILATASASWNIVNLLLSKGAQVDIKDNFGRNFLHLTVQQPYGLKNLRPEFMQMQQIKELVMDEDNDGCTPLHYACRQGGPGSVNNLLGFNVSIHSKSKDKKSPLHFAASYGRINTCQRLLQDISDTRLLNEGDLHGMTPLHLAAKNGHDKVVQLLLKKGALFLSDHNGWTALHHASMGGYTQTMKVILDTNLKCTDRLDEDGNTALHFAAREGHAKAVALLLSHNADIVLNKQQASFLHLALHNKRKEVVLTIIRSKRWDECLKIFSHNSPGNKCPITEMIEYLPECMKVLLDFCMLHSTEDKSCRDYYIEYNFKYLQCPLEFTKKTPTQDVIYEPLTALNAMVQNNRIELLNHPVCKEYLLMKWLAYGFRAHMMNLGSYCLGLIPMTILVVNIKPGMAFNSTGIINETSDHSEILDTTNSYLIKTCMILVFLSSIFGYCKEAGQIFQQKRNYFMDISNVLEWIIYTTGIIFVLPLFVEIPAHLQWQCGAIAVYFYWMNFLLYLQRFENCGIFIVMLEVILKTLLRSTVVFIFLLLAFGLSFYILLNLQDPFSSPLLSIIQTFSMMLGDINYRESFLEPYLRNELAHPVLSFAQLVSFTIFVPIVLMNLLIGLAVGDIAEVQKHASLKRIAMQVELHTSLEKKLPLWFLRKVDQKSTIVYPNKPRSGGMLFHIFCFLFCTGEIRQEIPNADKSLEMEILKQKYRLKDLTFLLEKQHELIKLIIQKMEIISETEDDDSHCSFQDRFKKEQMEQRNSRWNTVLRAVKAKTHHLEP

On to `O=C(NCc1cc(-c2cnc(C(F)(F)F)nc2)ncc1F)[C@@H]1[C@H]2C[C@H]2CN1S(=O)(=O)c1ccc(F)cc1` (single isomer, unassigned) [Example 68], for which the IC50 under setting [1] stood at 14.6 nM.

With `O=C(NCc1ccc(F)c(-c2cnc(C(F)(F)F)nc2)c1)[C@H]1[C@@H]2C[C@@H]2CN1S(=O)(=O)c1ccc(F)cc1` (stereo in doubt) [Example 70, (1S,4R,5R)-3-(4-fluorophenyl)sulfonyl-N-[[4-fluoro-3-[2-(trifluoromethyl)pyrimidin-5-yl]phenyl]methyl]-3-azabicyclo[3.1.0]hexane-4-carboxamide], under setting [1], the IC50 came out at 11.3 nM.

As to `O=C(NCc1cc(-c2cnc(C(F)(F)F)nc2)ncc1F)[C@H]1[C@@H]2C[C@@H]2CN1S(=O)(=O)c1ccc(F)cc1` (stereo in doubt) [Example 79, (1S,4R,5R)-3-(4-fluorophenyl)sulfonyl-N-[[5-fluoro-2-[2-(trifluoromethyl)pyrimidin-5-yl]-4-pyridyl]methyl]-3-azabicyclo[3.1.0]hexane-4-carboxamide], the IC50 under setting [1] is 14.6 nM.

Turning to `C[C@H]1[C@H](F)C[C@@H](C(=O)NCc2cc(-c3cnc(C(F)(F)F)nc3)ncc2F)N1S(=O)(=O)c1cccc(Cl)c1` (stereo in doubt) [Example 91, (2S,4R,5S)-1-(3-chlorophenyl)sulfonyl-4-fluoro-N-[[5-fluoro-2-[2-(trifluoromethyl)pyrimidin-5-yl]-4-pyridyl]methyl]-5-methyl-pyrrolidine-2-carboxamide], under setting [1], the IC50 came out at 20 nM.

Regarding `C[C@H]1[C@H](F)C[C@@H](C(=O)NCc2cc(-c3cnc(C(F)(F)F)nc3)ncc2F)N1S(=O)(=O)c1ccc(Cl)c(Cl)c1` (stereo in doubt) [Example 92, (2S,4R,5S)-1-(3,4-dichlorophenyl)sulfonyl-4-fluoro-N-[[5-fluoro-2-[2-(trifluoromethyl)pyrimidin-5-yl]-4-pyridyl]methyl]-5-methyl-pyrrolidine-2-carboxamide], the IC50 under setting [1] amounted to 8.69 nM.

Turning to `O=C(NCc1ccnc(-c2cnc(C(F)(F)F)nc2)c1)[C@@H]1C[C@@H](F)CN1S(=O)(=O)c1ccc(F)cc1` [(2S,4R)-4-fluoro-1-(4-fluorophenyl)sulfonyl-N-[[2-[2-(trifluoromethyl)pyrimidin-5-yl]-4-pyridyl]methyl]pyrrolidine-2-carboxamide, reference compound], the IC50 under setting [2] was 129 nM.

Take `O=C(NCc1cc(-c2cnc(C(F)(F)F)nc2)ncc1F)[C@@H]1C[C@@H](F)CN1S(=O)(=O)c1ccc(F)cc1` [(2S,4R)-4-fluoro-1-(4-fluorophenyl)sulfonyl-N-[[5-fluoro-2-[2-(trifluoromethyl)pyrimidin-5-yl]-4-pyridyl]methyl]pyrrolidine-2-carboxamide, reference compound]: the IC50 under setting [2] amounted to 26.7 nM.

Take `O=C(NCc1cc(-c2cnc(C(F)(F)F)nc2)ncn1)[C@@H]1C[C@@H](F)CN1S(=O)(=O)c1ccc(F)cc1` [(2S,4R)-4-fluoro-1-(4-fluorophenyl)sulfonyl-N-[[6-[2-(trifluoromethyl)pyrimidin-5-yl]pyrimidin-4-yl]methyl]pyrrolidine-2-carboxamide, reference compound]: the IC50 under setting [2] came out at 251 nM.

Consider `O=C(NCc1cc(-c2cnc(C(F)(F)F)nc2)c(Cl)cn1)[C@@H]1C[C@@H](F)CN1S(=O)(=O)c1ccc(F)cc1` [(2S,4R)-N-[[5-chloro-4-[2-(trifluoromethyl)pyrimidin-5-yl]-2-pyridyl]methyl]-4-fluoro-1-(4-fluorophenyl)sulfonyl-pyrrolidine-2-carboxamide, reference compound], for which the IC50 under setting [2] came out at 42.2 nM.

`C[C@H]1[C@H](F)C[C@@H](C(=O)NCc2cc(-c3cnc(C(F)(F)F)nc3)ncc2F)N1S(=O)(=O)c1ccc(F)cc1` [Example 1, (2S,4R,5S)-4-fluoro-N-([5-fluoro-2-[2-(trifluoromethyl)pyrimidin-5-yl]pyridin-4-yl]methyl)-1-[(4-fluorobenzene)sulfonyl]-5-methylpyrrolidine-2-carboxamide]: the IC50 under setting [1] was determined as 1.91 nM.

Regarding `C[C@H]1[C@H](C#N)C[C@@H](C(=O)NCc2cc(-c3cnc(C(F)(F)F)nc3)ccc2F)N1S(=O)(=O)c1ccc(F)cc1` [Example 2, (2S,4R,5S)-4-cyano-N-([2-fluoro-5-[2-(trifluoromethyl)pyrimidin-5-yl]phenyl]methyl)-1-[(4-fluorobenzene)sulfonyl]-5-methylpyrrolidine-2-carboxamide], under setting [1], the IC50 worked out at 7.46 nM.

Take `C[C@H]1CC[C@@H](C(=O)NCc2cc(Cl)nc(-c3cnc(C(F)(F)F)nc3)c2)N1S(=O)(=O)c1ccc(F)cc1` [Example 3, (2S,5S)—N-([2-chloro-6-[2-(trifluoromethyl)pyrimidin-5-yl]pyridin-4-yl]methyl)-1-[(4-fluorobenzene)sulfonyl]-5-methylpyrrolidine-2-carboxamide]: the IC50 under setting [1] came to 1.12 nM.

Turning to `O=C(NCc1cc(-c2cnc(C(F)(F)F)nc2)ncn1)[C@@H]1CCC2(CC2)N1S(=O)(=O)c1ccc(F)cc1` [Example 4, (5S)-4-[(4-fluorobenzene)sulfonyl]-N-([6-[2-(trifluoromethyl)pyrimidin-5-yl]pyrimidin-4-yl]methyl)-4-azaspiro[2.4]heptane-5-carboxamide], the IC50 under setting [1] was 71.2 nM.

As to `C[C@H]1[C@H](F)C[C@@H](C(=O)NCc2ccc(F)c(-c3cnc(C(F)(F)F)nc3)c2)N1S(=O)(=O)c1ccc(F)cc1` [Example 5, (2S,4R,5S)-4-fluoro-1-(4-fluorophenyl)sulfonyl-N-[[4-fluoro-3-[2-(trifluoromethyl)pyrimidin-5-yl]phenyl]methyl]-5-methyl-pyrrolidine-2-carboxamide], the IC50 under setting [1] came to 3.77 nM.

Take `COc1nn(-c2cnc(C(F)(F)F)nc2)cc1CNC(=O)[C@@H]1C[C@@H](F)[C@H](C)N1S(=O)(=O)c1ccc(F)cc1` [Example 6, (2S,4R,5S)-4-fluoro-1-(4-fluorophenyl)sulfonyl-N-[[3-methoxy-1-[2-(trifluoromethyl)pyrimidin-5-yl]pyrazol-4-yl]methyl]-5-methyl-pyrrolidine-2-carboxamide]: under setting [1], the half-maximal inhibitory concentration (IC50) is 9.62 nM.

On to `C[C@H]1[C@H](F)C[C@@H](C(=O)NCc2cn(-c3cnc(C(F)(F)F)nc3)nc2C(F)F)N1S(=O)(=O)c1ccc(F)cc1` [Example 7, (2S,4R,5S)-N-[[3-(difluoromethyl)-1-[2-(trifluoromethyl)pyrimidin-5-yl]pyrazol-4-yl]methyl]-4-fluoro-1-(4-fluorophenyl)sulfonyl-5-methyl-pyrrolidine-2-carboxamide], for which, under setting [1], the IC50 was found to be 26.2 nM.

On to `C[C@H]1[C@H](F)C[C@@H](C(=O)NCc2cc(-c3cnc(C(F)(F)F)nc3)ncn2)N1S(=O)(=O)c1ccc(F)cc1` [Example 8, (2S,4R,5S)-4-fluoro-1-(4-fluorophenyl)sulfonyl-5-methyl-N-[[6-[2-(trifluoromethyl)pyrimidin-5-yl]pyrimidin-4-yl]methyl]pyrrolidine-2-carboxamide], for which the IC50 under setting [1] was 17.3 nM.

On to `O=C(NCc1cc(-c2cnc(C(F)(F)F)nc2)ncn1)[C@@H]1CC[C@H](C(F)(F)F)N1S(=O)(=O)c1ccc(F)cc1` [Example 9, (2S,5R)-1-(4-fluorophenyl)sulfonyl-5-(trifluoromethyl)-N-[[6-[2-(trifluoromethyl)pyrimidin-5-yl]pyrimidin-4-yl]methyl]pyrrolidine-2-carboxamide], for which, under setting [1], the IC50 came out at 42.2 nM.

Turning to `C[C@H]1[C@H](F)C[C@@H](C(=O)NCc2cc(Cl)nc(-c3cnc(C(F)(F)F)nc3)c2)N1S(=O)(=O)c1ccc(F)cc1` [Example 10, (2S,4R,5S)-N-[[2-chloro-6-[2-(trifluoromethyl)pyrimidin-5-yl]-4-pyridyl]methyl]-4-fluoro-1-(4-fluorophenyl)sulfonyl-5-methyl-pyrrolidine-2-carboxamide], the IC50 under setting [1] is 2.26 nM.

Turning to `C[C@H]1CC[C@@H](C(=O)NCc2cc(-c3cnc(C(F)(F)F)nc3)nc(-c3cnc(C(F)(F)F)nc3)c2)N1S(=O)(=O)c1ccc(F)cc1` [Example 11, (2S,5S)-N-[[2,6-bis[2-(trifluoromethyl)pyrimidin-5-yl]-4-pyridyl]methyl]-1-(4-fluorophenyl)sulfonyl-5-methyl-pyrrolidine-2-carboxamide], under setting [1], the IC50 was found to be 3.17 nM.

In the case of `C[C@H]1[C@H](F)C[C@@H](C(=O)NCc2cc(-c3cnc(C(F)(F)F)nc3)ncc2Cl)N1S(=O)(=O)c1ccc(F)cc1` [Example 12, (2S,4R,5S)-N-[[5-chloro-2-[2-(trifluoromethyl)pyrimidin-5-yl]-4-pyridyl]methyl]-4-fluoro-1-(4-fluorophenyl)sulfonyl-5-methyl-pyrrolidine-2-carboxamide], the IC50 under setting [1] turned out to be 2.94 nM.

Consider `O=C(NCc1ccnc(-c2cnc(C(F)(F)F)nc2)c1)[C@@H]1C[C@@H]2C[C@@H]2N1S(=O)(=O)c1ccc(F)cc1` [Example 13, (1S,3S,5S)-2-(4-fluorophenyl)sulfonyl-N-[[2-[2-(trifluoromethyl)pyrimidin-5-yl]-4-pyridyl]methyl]-2-azabicyclo[3.1.0]hexane-3-carboxamide], for which, under setting [1], the IC50 was determined as 23 nM.

As to `C[C@H]1[C@H](F)C[C@@H](C(=O)NCc2cc(-c3cnc(C(F)(F)F)nc3)ccc2F)N1S(=O)(=O)c1ccc(F)cc1` [Example 14, (2S,4R,5S)-4-fluoro-1-(4-fluorophenyl)sulfonyl-N-[[2-fluoro-5-[2-(trifluoromethyl)pyrimidin-5-yl]phenyl]methyl]-5-methyl-pyrrolidine-2-carboxamide], the IC50 under setting [1] turned out to be 2.14 nM.
